Reference: patent publication US20260193238A1, “PHARMACEUTICAL COMPOUNDS AS PARP7 AND/OR PARP1 INHIBITORS” (Duke Street Bio Limited, priority 2022, published 2026)

Each molecule was assayed against PARP1 (Homo sapiens, UniProt P09874) (assay: PARP1 biochemical DELFIA assay (auto-PARylation)). Details: Table 1.
Sequence of PARP1 (P09874 whole entry): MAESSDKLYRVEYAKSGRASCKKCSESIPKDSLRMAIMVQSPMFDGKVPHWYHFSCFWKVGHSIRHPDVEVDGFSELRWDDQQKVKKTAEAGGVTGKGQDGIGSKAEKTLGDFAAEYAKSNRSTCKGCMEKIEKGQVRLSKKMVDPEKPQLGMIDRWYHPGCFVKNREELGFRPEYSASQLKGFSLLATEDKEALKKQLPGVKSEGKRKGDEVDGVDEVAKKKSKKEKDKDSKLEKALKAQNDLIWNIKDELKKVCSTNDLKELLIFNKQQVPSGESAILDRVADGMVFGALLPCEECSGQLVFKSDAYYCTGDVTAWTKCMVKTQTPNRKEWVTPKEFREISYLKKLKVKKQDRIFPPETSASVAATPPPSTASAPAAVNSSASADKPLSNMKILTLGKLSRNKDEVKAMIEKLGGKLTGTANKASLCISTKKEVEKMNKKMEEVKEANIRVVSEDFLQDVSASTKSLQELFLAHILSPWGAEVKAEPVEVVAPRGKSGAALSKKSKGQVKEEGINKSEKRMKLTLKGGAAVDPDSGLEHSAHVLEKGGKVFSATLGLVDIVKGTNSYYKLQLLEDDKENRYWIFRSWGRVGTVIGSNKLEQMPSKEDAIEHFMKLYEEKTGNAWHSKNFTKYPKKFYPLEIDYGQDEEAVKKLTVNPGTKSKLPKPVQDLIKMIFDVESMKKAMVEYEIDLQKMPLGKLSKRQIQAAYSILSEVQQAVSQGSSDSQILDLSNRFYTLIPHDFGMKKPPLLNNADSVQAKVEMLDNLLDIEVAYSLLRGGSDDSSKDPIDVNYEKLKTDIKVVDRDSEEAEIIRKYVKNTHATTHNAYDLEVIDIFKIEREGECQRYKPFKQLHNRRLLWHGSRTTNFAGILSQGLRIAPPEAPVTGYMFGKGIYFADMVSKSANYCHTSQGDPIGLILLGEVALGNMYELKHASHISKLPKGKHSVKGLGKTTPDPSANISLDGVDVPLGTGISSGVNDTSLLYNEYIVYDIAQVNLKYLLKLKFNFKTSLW
Protocol: Prior to assay, wells were washed 3×5 min in coating wash buffer.
% data was fitted to a non-linear regression equation (log inhibitor vs response-variable slope 4-parameters) to obtain IC50 values.

| Structure (SMILES) | IC50 [nM] |
| --- | --- |
| O=C(CCN1CCCC(c2cc(C(F)(F)F)c(=O)[nH]n2)C1)N1CCN(c2ncc(OC(F)(F)F)cn2)CC1 (single isomer, unassigned) [Compound 13a] | 100 to 1000 |
| O=C(CCN1CCCC(c2c[nH]c(=O)c(C(F)(F)F)c2)C1)N1CCN(c2ncc(C(F)(F)F)cn2)CC1 (single isomer, unassigned) [Compound 25a] | 10 to 100 |
| CCc1cc(C2CCCN(CCC(=O)N3CCN(c4ncc(C(F)(F)F)cn4)CC3)C2)n[nH]c1=O (single isomer, unassigned) [Compound 6a, 4-ethyl-6-(1-(3-oxo-3-(4-(5-(trifluoromethyl)pyrimidin-2-yl)piperazin-1-yl)propyl)piperidin-3-yl)pyridazin-3(2H)-one] | 10 to 100 |
| O=C(CCN1CCCC1c1cc(C(F)(F)F)c(=O)[nH]n1)N1CCN(c2ncc(C(F)(F)F)cn2)CC1 (single isomer, unassigned) [Compound 18b, 6-(1-(3-oxo-3-(4-(5-(trifluoromethyl)pyrimidin-2-yl)piperazin-1-yl)propyl)pyrrolidin-2-yl)-4-(trifluoromethyl)pyridazin-3(2H)-one] | 10 to 100 |
| O=C(CN1CCC(c2cc(C(F)(F)F)c(=O)[nH]n2)C1)N1CCN(c2ncc(C(F)(F)F)cn2)CC1 (racemic) [Compound 19rac] | 100 to 1000 |
| O=C(CCN1CCCC(c2cc(C(F)(F)F)c(=O)[nH]n2)C1)N1CCN(c2ncc(C(F)(F)F)s2)CC1 (single isomer, unassigned) [Compound 27b] | 10 to 100 |

Same assay, conditions: Table 1A

| Structure (SMILES) | IC50 [nM] |
| --- | --- |
| COC1CC(c2cc(C(F)(F)F)c(=O)[nH]n2)N(CC(=O)N2CCN(c3ncc(C(F)(F)F)cn3)CC2)C1 (single isomer, unassigned) [Compound 138cis2, 6-(4-methoxy-1-(2-oxo-2-(4-(5-(trifluoromethyl)pyrimidin-2-yl)piperazin-1-yl)ethyl)pyrrolidin-2-yl)-4-(trifluoromethyl)pyridazin-3(2H)-one] | 1000 to 10000 |
| CNC(=O)c1ccc(N2CCN(C(=O)CN3CCCC3c3cc(C(F)(F)F)c(=O)[nH]n3)CC2)nc1 (single isomer, unassigned) [Compound 55b] | 100 to 1000 |
| N#Cc1cc(C2CCCN2CC(=O)N2CCN(c3nc4ccc(F)cc4o3)CC2)n[nH]c1=O (single isomer, unassigned) [Compound 111a] | 10 to 100 |
| Cn1c(N2CCN(C(=O)CN3CCCC3c3cc(C(F)(F)F)c(=O)[nH]n3)CC2)nc2ccc(F)cc21 (single isomer, unassigned) [Compound 119b] | > 10000 |
| O=C(CN1CCCC1c1c[nH]c(=O)c(C(F)(F)F)c1)N1CCN(c2ncc(C(F)(F)F)cn2)CC1 (single isomer, unassigned) [Compound 60b, 5-(1-(2-oxo-2-(4-(5-(trifluoromethyl)pyrimidin-2-yl)piperazin-1-yl)ethyl)pyrrolidin-2-yl)-3-(trifluoromethyl)pyridin-2(1H)-one] | 100 to 1000 |
| O=C(CN1CCCCC1c1cc(C(F)(F)F)c(=O)[nH]n1)N1CCN(c2ncc(C(F)(F)F)cn2)CC1 (single isomer, unassigned) [Compound 66a] | 100 to 1000 |
| O=C(CN1CCCC1c1cc(C(F)(F)F)c(=O)[nH]n1)N1CCN(c2ccc(C(F)F)cn2)CC1 (single isomer, unassigned) [Compound 126a] | 10 to 100 |
| O=C(CN1CCCC1c1cc(C(F)(F)F)c(=O)[nH]n1)N1CCN(c2nc3cc(Cl)ccc3o2)CC1 (single isomer, unassigned) [Compound 99b] | 1000 to 10000 |
| CN(c1ncc(C(F)(F)F)cn1)C1CN(C(=O)CN2CCCC2c2cc(C(F)(F)F)c(=O)[nH]n2)C1 (single isomer, unassigned) [Compound 127b] | 1000 to 10000 |
| O=C(CN1CCCC1c1cc(C(F)(F)F)c(=O)[nH]n1)N1CCC2(CC1)CN(c1ncc(C(F)(F)F)cn1)C2 (single isomer, unassigned) [Compound 101b] | 100 to 1000 |
| O=C(CN1CCCC1c1cc(C(F)(F)F)c(=O)[nH]n1)N1CCN(c2ncc(F)cn2)CC1 (single isomer, unassigned) [Compound 43b] | 1000 to 10000 |
| O=C(CN1CCCC1c1cc(C(F)(F)F)c(=O)[nH]n1)N1CCN(c2ncc(F)cc2F)CC1 (single isomer, unassigned) [Compound 83b] | > 10000 |
| N#Cc1cnc(N2CCN(C(=O)CN3CCCC3c3cc(C(F)(F)F)c(=O)[nH]n3)CC2)s1 (racemic) [Compound 44rac] | 10 to 100 |
| O=C(CN1CCCC1c1c[nH]c(=O)c(C(F)(F)F)c1)N1CCN(c2ncc(C(F)(F)F)cn2)CC1 (racemic) [Compound 60rac, 5-(1-(2-oxo-2-(4-(5-(trifluoromethyl)pyrimidin-2-yl)piperazin-1-yl)ethyl)pyrrolidin-2-yl)-3-(trifluoromethyl)pyridin-2(1H)-one] | 100 to 1000 |
| N#Cc1cc(C2CCCN2CC(=O)N2CCN(c3ncc(C(F)(F)F)cn3)CC2)n[nH]c1=O (single isomer, unassigned) [Compound 98a, 3-oxo-6-(1-(2-oxo-2-(4-(5-(trifluoromethyl)pyrimidin-2-yl)piperazin-1-yl)ethyl)pyrrolidin-2-yl)-2,3-dihydropyridazine-4-carbonitrile] | 100 to 1000 |
| O=C(CN1CCCC1c1cc(C(F)(F)F)c(=O)[nH]n1)C1CCN(c2ncc(C(F)(F)F)cn2)CC1 (single isomer, unassigned) [Compound 75b] | > 10000 |
| N#Cc1cc(Cl)cnc1N1CCN(C(=O)CN2CCCC2c2cc(C(F)(F)F)c(=O)[nH]n2)CC1 (single isomer, unassigned) [Compound 144a] | 10 to 100 |
| COC1CC(c2cc(C(F)(F)F)c(=O)[nH]n2)N(CC(=O)N2CCN(c3ncc(C(F)(F)F)cn3)CC2)C1 (single isomer, unassigned) [Compound 138trans2, 6-(4-methoxy-1-(2-oxo-2-(4-(5-(trifluoromethyl)pyrimidin-2-yl)piperazin-1-yl)ethyl)pyrrolidin-2-yl)-4-(trifluoromethyl)pyridazin-3(2H)-one] | > 10000 |
| N#Cc1ccc(N2CCN(C(=O)CN3CCCC3c3c[nH]c(=O)c(C(F)(F)F)c3)CC2)nc1 (single isomer, unassigned) [Compound 77a] | 1000 to 10000 |
| O=C(CN1CCCC1c1cc(Cl)c(=O)[nH]n1)N1CCN(c2ncc(C(F)(F)F)cn2)CC1 (racemic) [Compound 68rac, 4-chloro-6-(1-(2-oxo-2-(4-(5-(trifluoromethyl)pyrimidin-2-yl)piperazin-1-yl)ethyl)pyrrolidin-2-yl)pyridazin-3(2H)-one] | 100 to 1000 |

| Structure (SMILES) | IC50 [nM] |
| --- | --- |
| O=C(CN1CCN(c2ncc(C(F)(F)F)cn2)CC1)N1CCCC1c1c[nH]c(=O)c(C(F)(F)F)c1 (single isomer, unassigned) [Compound 63a] | 10 to 100 |
| N#Cc1ccc2oc(N3CCN(C(=O)CN4CCCC4c4cc(C(F)(F)F)c(=O)[nH]n4)CC3)nc2c1 (single isomer, unassigned) [Compound 100b] | 100 to 1000 |
| O=C(CN1CCCC1c1cc(C(F)(F)F)c(=O)[nH]n1)N1CCN(c2ncc(OC(F)F)cn2)CC1 (single isomer, unassigned) [Compound 118b] | 1000 to 10000 |
| Cn1c(N2CCN(C(=O)CN3CCCC3c3cc(C(F)(F)F)c(=O)[nH]n3)CC2)nc2ccccc21 (single isomer, unassigned) [Compound 97a] | 100 to 1000 |
| O=C(CN1CCCC1c1cc(C(F)(F)F)c(=O)[nH]n1)N1CC2(CCN(c3ncc(C(F)(F)F)cn3)CC2)C1 (single isomer, unassigned) [Compound 110b] | 1000 to 10000 |
| N#Cc1ccc(N2CCN(C(=O)CN3CCCC3c3cc(C(F)(F)F)c(=O)[nH]n3)CC2)cc1 (single isomer, unassigned) [Compound 71b] | 10 to 100 |
| O=C(CN1CCCC1c1cc(C(F)(F)F)c(=O)[nH]n1)N1CCN(c2cc(Cl)c(F)cn2)CC1 (single isomer, unassigned) [Compound 80b] | 10 to 100 |
| N#Cc1cc(C2CCCN2CC(=O)N2CCN(c3nc4cc(F)ccc4o3)CC2)n[nH]c1=O (single isomer, unassigned) [Compound 149a] | 10 to 100 |
| O=C(CN1CCCC1c1cc(C(F)(F)F)c(=O)[nH]n1)N1CCN(c2ncc(F)cc2C(F)(F)F)CC1 (single isomer, unassigned) [Compound 120b] | > 10000 |
| O=C(CN1CCCC1c1cc(C(F)(F)F)c(=O)[nH]n1)N1CCN(c2ccc(OC(F)(F)F)cn2)CC1 (single isomer, unassigned) [Compound 81b] | 10 to 100 |
| O=C(CN1CCCC1c1cc(C(F)(F)F)c(=O)[nH]n1)N1CCN(c2ccc(C3CC3)cn2)CC1 (single isomer, unassigned) [Compound 79a] | 10 to 100 |
| Cc1[nH]c(=O)c(C(F)(F)F)cc1C1CCCN1CC(=O)N1CCN(c2ncc(C(F)(F)F)cn2)CC1 (single isomer, unassigned) [Compound 102b, 6-methyl-5-(1-(2-oxo-2-(4-(5-(trifluoromethyl)pyrimidin-2-yl)piperazin-1-yl)ethyl)pyrrolidin-2-yl)-3-(trifluoromethyl)pyridin-2(1H)-one] | 1000 to 10000 |
| N#Cc1ccc2nc(N3CCN(C(=O)CN4CCCC4c4cc(C(F)(F)F)c(=O)[nH]n4)CC3)oc2c1 (single isomer, unassigned) [Compound 96b] | ≤ 10 |
| O=C(CN1CCCC1c1cc(C(F)(F)F)c(=O)[nH]n1)N1CCN(c2ncc(Cl)cn2)CC1 (single isomer, unassigned) [Compound 35b] | 1000 to 10000 |
| O=C(CN1CCOCC1c1cc(C(F)(F)F)c(=O)[nH]n1)N1CCN(c2ncc(C(F)(F)F)cn2)CC1 (single isomer, unassigned) [Compound 88a] | 100 to 1000 |
| O=C(CN1CCCC1c1cc(C(F)(F)F)c(=O)[nH]n1)N1CCN(c2cnc(C(F)(F)F)cn2)CC1 (single isomer, unassigned) [Compound 45a] | 10 to 100 |
| O=C(CN1CCCC1c1c[nH]c(=O)c(C(F)(F)F)c1)N1CCN(c2ncc(Cl)cn2)CC1 (single isomer, unassigned) [Compound 74b] | 1000 to 10000 |
| O=C(CN1CCC(c2n[nH]c(=O)c3ccccc23)CC1)N1CCN(c2ncc(C(F)(F)F)cn2)CC1 [Compound 51] | 10 to 100 |
| N#Cc1cc(C2CCCN2CC(=O)N2CCN(c3nc4cc(Cl)ccc4o3)CC2)n[nH]c1=O (single isomer, unassigned) [Compound 121a] | 100 to 1000 |
| CC1(C)CC(c2cc(C(F)(F)F)c(=O)[nH]n2)CN(CCC(=O)N2CCN(c3ncc(C(F)(F)F)cn3)CC2)C1 (single isomer, unassigned) [Compound 87a] | 100 to 1000 |
